In article PMC9227536, “Prediction of Pharmacokinetics of IDP-73152 in Humans Using Physiologically-Based Pharmacokinetics” (Pharmaceutics, 2022):

How the values were obtained:
[1] = Unbound fraction in plasma (rapid equilibrium dialysis), mouse; type: in vitro ADME; settings: mice plasma, 0.3, 1, 3 μM, RED 5 h, read-out: fu,p
Description: The unbound fractions of IDP-73152 in various matrices were measured according to the manufacturer’s instructions for the rapid equilibrium dialysis (RED) device (ThermoFisher Scientific, Waltham, MA, USA). Briefly, IDP-73152 was added to the plasma or the microsomal/hepatocyte incubation buffer from various species (i.e., mouse, rat, dog, and human for microsomal incubation; rat for hepatocyte incubation) to obtain final concentrations of the compound at 0.3, 1, and 3 μM. After the membrane insert was placed in the RED plate, the solution containing IDP-73152 was added (400 µL) to the sample chamber, and the dialysis buffer (600 μL) was added to the buffer chamber. The RED plate was sealed with parafilm and then incubated at 37 °C in the orbital shaker (Lab Companion, Daejeon, Korea) at 100 rpm for 5 h. After a 50 μL aliquot was aspirated from both the sample and buffer chambers, an equal volume of protein-free buffer or blank medium was replaced in the aspirated sample or buffer to render the matrices compositionally identical. The IDP-73152 concentration in the buffer/sample chambers (i.e., CBuffer Chamber and CSample Chamber) was determined by an assay. Thus, the fraction unbound was defined as:(2) % Fraction unbound=(CBuffer Chamber/CSample Chamber)×100%

[2] = PBPK model prediction, humans
From the text: In this study, the PBPK model involving ten tissues (i.e., adipose tissue, brain, heart, kidney, liver, lung, muscle, skin, spleen, and testis (Figure 2; see Appendix A for detailed mathematical descriptions)) was considered to be applicable for the description of IDP-73152 PK in rats, mice, dogs, and humans. Physiological variables were obtained from the literature; they are summarized in Supplementary Table S1.
For the estimation of the volume of the distribution of IDP-73512 in rats, the steady-state volume of distribution (Vss) was calculated using the following equation [30]:(10) Vss=VP+Vrbc×EP+∑VT,i×KP,ss,i, where Vp, Vrbc, and VT,i are the volumes of plasma, red blood cells, and tissues, respectively. The erythrocyte-to-plasma partition coefficient (EP), is calculated by EP=1+(BP−1)/Hematocrit . The KP,ss for each tissue obtained from Equation (8) was applied for Equation (10). For the case of non-eliminating organs, the KP,ss was regarded as the tissue-to-plasma partition coefficient (KP) in PBPK equations (Appendix A). For the case of the liver—i.e., the eliminating organ—the KP,ss (KP,ss,LI) had to be corrected to account for the equilibrium being altered by the elimination. Thus, a PBPK-operative KP for liver (KP,LI) was calculated using the following equation [31]:(11) KP,LI=KP,ss,LI/(1−ER), where ER is the hepatic extraction ratio of the compound (i.e., CLh/(QLI·BP)). In this study, a compartmental absorption and transit (CAT) model consisting of stomach and five intestinal segments was considered for the description of the intestinal absorption kinetics of IDP-73152 in animals and humans. We assumed that the initial compartment denoted the stomach (Equation (12)), and the subsequent three compartments represented the small intestine and two additional compartments for the large intestine (i.e., a total of six compartments, with absorption occurring in the five intestinal compartments) (Equation (13)). The differential equations describing the rate of drug absorption and transit in the gastrointestinal tract can be written as:
For the intestine, viz. i = 1~5:(13) dMi/dt=Kt,i−1×Mi−1−(Kt,i+ka,i)×Mi, where Ms is the amount of drug in the stomach; Mi is the amount of drug in the i-th intestinal segment; Ks, Kt,i, and ka,i are the rate constants of gastric emptying, intestinal transit, and the segmental absorption rate, respectively. […] The absorption rate constant in the intestinal segments in humans, ka,i,human, was assumed to be identical along the segments and calculated as follows: first, Peff was empirically estimated from the Caco-2 cell permeability (Papp):(14) LogPeff=0.4926×LogPapp−0.1454
Then, ka,i,human for the intestinal segments i = 1~5 was calculated by (15) ka,1~5,human=2×Peff/R […]

[3] = Physicochemical properties (Table S3)
[4] = system: penicillin-resistant Streptococcus pneumonia; settings: infected mice, twice-a-day dosing; cited from earlier work
[5] = system: methicilin-resistant Staphylococus aureus; settings: infected mice, twice-a-day dosing; cited from earlier work

**Q.** For `CC(C)(C)[C@H](NC(=O)[C@H](CC1CCCC1)CN(O)C=O)C(=O)N1CCC(NCc2cc(F)c(F)cc2F)CC1` [IDP-73152], which fraction unbound at 5 h [1] is on record?
**A.** The fraction unbound at 5 h was 0.0562 ± 0.0087.

**Q.** What about the AUC ratio ([2]; oral 640 mg) of the same compound?
**A.** Its AUC ratio is 1.00.

**Q.** And the Cmax ratio ([2]; oral 640 mg)?
**A.** The Cmax ratio was 0.498.

**Q.** And the AUC ratio ([2]; oral 1280 mg)?
**A.** The AUC ratio was 1.12.

**Q.** And the Cmax ratio ([2]; oral 1280 mg)?
**A.** Its Cmax ratio is 0.671.

**Q.** And the logP [3]?
**A.** The logP was -0.52.

**Q.** What about the pKa [3] of the same compound?
**A.** Its pKa is 8.8.

**Q.** And the “ED50 (oral dose at which the survival rate was 50%)” value [4]?
**A.** The value was 3.0 mg/kg.

**Q.** And the “ED50 (oral dose at which the survival rate was 50%)” value [5]?
**A.** The value was 16.6 mg/kg.
